pIC50: −log10 of the molar value.
How the values were obtained:
[1] = tested on: T cell response to the autoantigen, amino acids 9-23 in the B chain of insulin; assay: Inhibition of T cell response to insulin B chain amino acids 9-23; type: cell-based, mouse
From the text: (§1) This molecule inhibited the insulin presentation to T cells capable of causing diabetes in mice and T cells responding to insulin in humans. […] Specificity was shown by using the molecule to inhibit tetramer binding (I-A^g^7 complexed to insulin peptides) to T cells.

[2] = tested on: human T cell receptor recognizing insulin B:9-23 presented by human DQ8; assay: Inhibition of human T cell receptor recognizing insulin B:9-23 presented by human DQ8; type: cell-based
From the text: Using a TCR sequence obtained from a T cell line generated from the peripheral blood of a diabetic individual with DQ8 molecule, a TCR was identified that is DQ8 restricted and responds to the insulin B:9-23 peptide.
Molecules predicted to occupy pockets 1 and 9 of the human DQ8 peptide binding groove were identified using in silico molecular docking program. The top scoring compounds for each pocket were screened for their ability to inhibit anti-B:9-23 T cell responses. FIGS. 9A and 9B represent the results of the T cell stimulation assay for compounds occupying pocket 1 and pocket 9 of the human DQ8 peptide binding groove, respectively.

I-A^g^7 = assay: Soluble binding assay, B:9-23 peptide to empty I-A^g^7; set-up: species or system mouse; details: dose dependent
[3] = tested on: I-A^g^7 complexed to insulin peptides; assay: Tetramer staining, I-A^g^7 complexed to insulin peptides; type: cell-based, mouse
From the text: as §1

[4] = target: T1, I-A^b complexed to a 3K peptide (Mus musculus, UniProt P14434+P14483); assay: Tetramer staining, I-A^b complexed to a 3K peptide; type: cell-based; details: specificity control
T1 sequence (P14434 24-218 limits assumed): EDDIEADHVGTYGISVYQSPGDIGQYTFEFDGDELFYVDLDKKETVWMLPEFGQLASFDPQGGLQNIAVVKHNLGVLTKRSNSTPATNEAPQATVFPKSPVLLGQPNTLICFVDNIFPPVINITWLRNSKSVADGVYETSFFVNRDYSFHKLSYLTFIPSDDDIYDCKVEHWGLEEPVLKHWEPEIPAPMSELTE
T1 sequence (P14483 28-226 limits assumed): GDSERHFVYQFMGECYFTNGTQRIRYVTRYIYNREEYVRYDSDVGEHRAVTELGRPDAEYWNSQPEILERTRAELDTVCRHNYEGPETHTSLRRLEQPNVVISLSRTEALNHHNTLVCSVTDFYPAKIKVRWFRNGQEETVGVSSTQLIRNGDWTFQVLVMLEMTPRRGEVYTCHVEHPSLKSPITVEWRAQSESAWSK

[5] = tested on: 489 TCR transfectoma, deamidated α-gliadin; assay: Ex vivo biomarker assay in DQ8 humanized mice, 489 TCR transfectoma with deamidated α-gliadin; details: pooled PBMCs from treated mice
Description: (§2) TATD was further evaluated in humanized DQ8 mice. These mice are on a NOD background, I-A null, and contain transgenes for DQ8 and human CD4 (NOD, I-A^g^7 null, DQ8 transgene, Rag KO). TATD was used to develop a rapid ex vivo biomarker assay to monitor the effects of small molecules on antigen presentation in DQ8 humanized mice. To identify a biomarker, mice were treated in vivo with TATD (either by intraperitoneal injection or gastric gavage) and isolated splenocytes or peripheral blood mononuclear cells (PBMCs) were used to monitor antigen presentation to DQ8 restricted T cell receptor (TCR) transfectomas.
(§3) Using this biomarker assay, DQ8 humanized mice were treated with a single intraperitoneal dose of TATD (20 mg/kg) and then sacrificed 2 hours later. Splenocytes from treated mice were cultured with the insulin B:13-23 antigen in the presence of clone 5 TCR transfectomas, or deamidated α-gliadin in the presence of the 489 TCR transfectoma. No TATD was added in vitro to the stimulation assays. Control mice received IP injections of PBS (the vehicle in which TATD is dissolved).

Anti-CD3 stimulation = Anti-CD3 stimulation control in ex vivo biomarker assay; set-up: species or system DQ8 humanized mice; details: mouse
Description: The IL-2 response from the TCR transfectomas using splenocytes harvested within 2 hours from TATD treated mice was abrogated compared to PBS treated controls (FIGS. 13A and 13B). Anti-CD3 stimulation was not inhibited in the presence of TATD.

[6] = tested on: clone 5 TCR transfectomas, insulin B:13-23 antigen; assay: Ex vivo biomarker assay in DQ8 humanized mice, clone 5 TCR transfectomas with insulin B:13-23
Description: as §2, §3

[7] = tested on: isolated whole islets from an adult non-diabetic NOD mouse; assay: TCR response to isolated whole islets; type: cell-based; details: islets containing beta cells
Description: (§4) The ability of the small molecules to block endogenous insulin presentation was tested. Incubation of whole insulin with I-A^g^7 containing splenocytes activates 5KC cells (T cell hybridoma lacking endogenous TCRα and β chains) transduced with a 4-8 TCR. […] To document direct effects of these small molecules on inhibiting peptide binding to I-A^g^7, an I-A^g^7 protein construct was expressed in baculovirus with a linked peptide. The flexible linker contained a thrombin cleavage site, allowing for thrombin cleavage of the linker and release of the peptide.

DQ8 = DQ8 (Homo sapiens, UniProt P01909+P01920, A209T/A45G/C70Q/D89A/DUP78-78/E183D/E77G/F237L/G63E/H199R/I129T/K197E/L178F/L74F/L98V/Q57E/Q76R/S185I/S97I/T217I/T49S/V73L/Y58L); assay: Competitive binding assay B:9-23 to DQ8
NOD mice = assay: Insulin autoantibody production and diabetes onset in NOD mice; type: in vivo, mouse; details: 20 mg/kg IP daily from 4 to 12 weeks of age
Description: To test the efficacy of this molecule in vivo, Jackson NOD mice were treated with TATD at a dose of 20 mg/kg IP daily starting at 4 weeks of age. Treatment ceased at 12 weeks of age. Insulin autoantibody (IAA) was measured before treatment at 8, 10, 12, 16, 20, and 24 weeks of age.

[8] = tested on: DQ8 restricted T cell receptor (TCR) transfectomas; assay: Ex vivo biomarker assay in DQ8 humanized mice, duration and oral route
[9] = tested on: 5KC cells transduced with a 4-8 TCR; assay: Endogenous insulin presentation: whole insulin with I-A^g^7 splenocytes and 4-8 TCR transduced 5KC cells; type: cell-based, mouse
Description: as §4

C1CN2CN3CCN(CN1C3)C2 [TATD, 1,3,6,8-tetraazatricyclo (4.4.1.1(3,8)) dodecane]
Concentration inhibiting T cell response to insulin B:9-23 [1]: low nanomolar
Concentration inhibiting antigen presentation by human DQ8 to T cells involved in type 1 diabetes [2]: low nanomolar
Inhibition of B:9-23 peptide binding to I-A^g^7 (I-A^g^7): block peptide binding
Tetramer staining of T cells recognizing insulin B:9-23 presented by I-A^g^7 [3]: inhibited tetramer staining
T cell staining with I-A^b / 3K peptide tetramer [4]: did not alter T cell staining
489 TCR transfectoma response to deamidated α-gliadin presented by PBMCs [5]: the same response is seen
Anti-CD3 stimulation (Anti-CD3 stimulation): not inhibited
Clone 5 response to insulin B:13-23 presented by PBMCs ([6]; pooled PBMCs from treated mice): blocked
IL-2 response of clone 5 TCR transfectomas, splenocytes ([6]; single 20 mg/kg IP dose, splenocytes harvested within 2 hours, vs PBS controls): abrogated
Inhibition of TCR response to whole islets [7]: able to inhibit endogenous antigen presentation
Block of peptide binding to DQ8 (DQ8): block peptide binding
pIC50 (DQ8): 11.35
Diabetes onset (NOD mice): prevents diabetes onset
Insulin autoantibody (IAA) formation (NOD mice; IAA up to 24 weeks): blocks IAA formation
Blocking IL-2 production from the TCR transfectomas ([8]; gastric gavage): effective at blocking IL-2 production
Oral absorption ([8]; gastric gavage): orally absorbed
Duration of effects on antigen presentation ([8]; single dose): 7 days
Inhibition of endogenous antigen presentation of whole insulin by antigen presenting cells [9]: able to inhibit endogenous antigen presentation

— US9629848B2, “Compounds that modulate autoimmunity and methods of using the same” (The Regents of the University of Colorado, a body corporate, priority 2011, dated 2017)
